What was measured:
Assay in all cases: relative viability (nuclei count vs DMSO), 5 days (fraction); higher = more cells survive
[1] = tested on: ABC-1
Method in brief: (§1)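 Relative viability divides the nuclei count in treated wells by that in vehicle wells. Lung cancer cell lines were seeded in 1536-well plates, dosed by pin tool the next day, and fixed and stained after 5 days in one step with final 0.05% Triton X-100, 1% formaldehyde and 1 ug/ml Hoechst. Dosing was a single drug or a fixed anchor-drug dose plus five library-drug doses (not always all listed) in √10 steps, and values are medians of duplicate plates imaged at 4×.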

[2] = tested on: COR-L23
Method in brief: as §1

[3] = tested on: ChaGo-K-1
Method in brief: as §1

[4] = tested on: EPLC-272H
Method in brief: as §1

[5] = tested on: HCC-15
Method in brief: as §1

[6] = tested on: HCC-366
Method in brief: as §1

[7] = tested on: HCC-44
Method in brief: as §1

[8] = tested on: HCC-827
Method in brief: as §1

[9] = tested on: LCLC-103H
Method in brief: as §1

[10] = tested on: NCI-H1355
Method in brief: as §1

[11] = tested on: NCI-H1734
Method in brief: as §1

[12] = tested on: NCI-H1793
Method in brief: as §1

[13] = tested on: NCI-H1944
Method in brief: as §1

[14] = tested on: NCI-H2009
Method in brief: as §1

[15] = tested on: NCI-H2023
Method in brief: as §1

[16] = tested on: NCI-H2085
Method in brief: as §1

[17] = tested on: NCI-H2228
Method in brief: as §1

[18] = tested on: NCI-H2347
Method in brief: as §1

[19] = tested on: NCI-H2405
Method in brief: as §1

[20] = tested on: NCI-H3122
Method in brief: as §1

[21] = tested on: PC-14
Method in brief: as §1

[22] = tested on: SW 1573
Method in brief: as §1

Cc1csc(=NC2CCCCC2)n1/N=C/c1ccc(O)c(O)c1O [MIM1] + O=C(CCCCCCC(=O)Nc1ccccc1)NO [Vorinostat] (partner 1 µM)
relative viability ([1]; first compound 0.2 µM): 1.42 | relative viability ([1]; first compound 0.6325 µM): 0.87 | relative viability ([1]; first compound 2 µM): 0.994 | relative viability ([1]; first compound 6.325 µM): 0.497 | relative viability ([1]; first compound 20 µM): 0.247 | relative viability ([2]; first compound 0.2 µM): 0.42 | relative viability ([2]; first compound 0.6325 µM): 0.441 | relative viability ([2]; first compound 2 µM): 0.371 | relative viability ([2]; first compound 6.325 µM): 0.314 | relative viability ([2]; first compound 20 µM): 0.162 | relative viability ([3]; first compound 0.2 µM): 0.714 | relative viability ([3]; first compound 0.6325 µM): 0.449 | relative viability ([3]; first compound 2 µM): 0.699 | relative viability ([3]; first compound 6.325 µM): 0.543 | relative viability ([3]; first compound 20 µM): 0.157 | relative viability ([4]; first compound 0.2 µM): 0.509 | relative viability ([4]; first compound 0.6325 µM): 0.523 | relative viability ([4]; first compound 2 µM): 0.343 | relative viability ([4]; first compound 6.325 µM): 0.125 | relative viability ([4]; first compound 20 µM): 0.126 | relative viability ([5]; first compound 0.2 µM): 0.789 | relative viability ([5]; first compound 0.6325 µM): 0.81 | relative viability ([5]; first compound 2 µM): 0.87 | relative viability ([5]; first compound 6.325 µM): 0.49 | relative viability ([5]; first compound 20 µM): 0.167 | relative viability ([6]; first compound 0.2 µM): 0.33 | relative viability ([6]; first compound 2 µM): 0.243 | relative viability ([6]; first compound 6.325 µM): 0.0699 | relative viability ([6]; first compound 20 µM): 0.0271 | relative viability ([7]; first compound 0.2 µM): 1.1 | relative viability ([7]; first compound 0.6325 µM): 1.1 | relative viability ([7]; first compound 2 µM): 1.01 | relative viability ([7]; first compound 6.325 µM): 1.08 | relative viability ([7]; first compound 20 µM): 0.324 | relative viability ([8]; first compound 0.2 µM): 0.871 | relative viability ([8]; first compound 0.6325 µM): 0.731 | relative viability ([8]; first compound 2 µM): 0.777 | relative viability ([8]; first compound 6.325 µM): 0.231 | relative viability ([8]; first compound 20 µM): 0.349 | relative viability ([9]; first compound 0.2 µM): 0.731 | relative viability ([9]; first compound 0.6325 µM): 0.39 | relative viability ([9]; first compound 2 µM): 0.768 | relative viability ([9]; first compound 6.325 µM): 0.48 | relative viability ([9]; first compound 20 µM): 0.342 | relative viability ([10]; first compound 0.2 µM): 0.673 | relative viability ([10]; first compound 0.6325 µM): 0.604 | relative viability ([10]; first compound 2 µM): 0.693 | relative viability ([10]; first compound 6.325 µM): 0.544 | relative viability ([10]; first compound 20 µM): 0.487 | relative viability ([11]; first compound 0.2 µM): 0.911 | relative viability ([11]; first compound 0.6325 µM): 0.582 | relative viability ([11]; first compound 2 µM): 0.757 | relative viability ([11]; first compound 6.325 µM): 0.442 | relative viability ([11]; first compound 20 µM): 0.125 | relative viability ([12]; first compound 0.2 µM): 0.783 | relative viability ([12]; first compound 2 µM): 0.732 | relative viability ([12]; first compound 6.325 µM): 0.649 | relative viability ([12]; first compound 20 µM): 0.553 | relative viability ([13]; first compound 0.2 µM): 0.548 | relative viability ([13]; first compound 0.6325 µM): 0.499 | relative viability ([13]; first compound 2 µM): 0.39 | relative viability ([13]; first compound 6.325 µM): 0.428 | relative viability ([13]; first compound 20 µM): 0.228 | relative viability ([14]; first compound 0.2 µM): 0.717 | relative viability ([14]; first compound 0.6325 µM): 0.713 | relative viability ([14]; first compound 2 µM): 0.685 | relative viability ([14]; first compound 6.325 µM): 0.506 | relative viability ([14]; first compound 20 µM): 0.372 | relative viability ([15]; first compound 0.2 µM): 0.55 | relative viability ([15]; first compound 0.6325 µM): 0.58 | relative viability ([15]; first compound 2 µM): 0.391 | relative viability ([15]; first compound 6.325 µM): 0.194 | relative viability ([15]; first compound 20 µM): 0.0736 | relative viability ([16]; first compound 0.2 µM): 0.765 | relative viability ([16]; first compound 0.6325 µM): 0.728 | relative viability ([16]; first compound 2 µM): 0.763 | relative viability ([16]; first compound 6.325 µM): 0.547 | relative viability ([16]; first compound 20 µM): 0.563 | relative viability ([17]; first compound 0.2 µM): 0.641 | relative viability ([17]; first compound 0.6325 µM): 0.909 | relative viability ([17]; first compound 2 µM): 0.589 | relative viability ([17]; first compound 6.325 µM): 0.19 | relative viability ([17]; first compound 20 µM): 0.206 | relative viability ([18]; first compound 0.2 µM): 0.68 | relative viability ([18]; first compound 0.6325 µM): 0.643 | relative viability ([18]; first compound 2 µM): 0.652 | relative viability ([18]; first compound 6.325 µM): 0.449 | relative viability ([18]; first compound 20 µM): 0.315 | relative viability ([19]; first compound 0.2 µM): 1.01 | relative viability ([19]; first compound 0.6325 µM): 0.964 | relative viability ([19]; first compound 2 µM): 1.11 | relative viability ([19]; first compound 6.325 µM): 0.749 | relative viability ([19]; first compound 20 µM): 0.416 | relative viability ([20]; first compound 0.2 µM): 0.959 | relative viability ([20]; first compound 0.6325 µM): 0.894 | relative viability ([20]; first compound 2 µM): 1.02 | relative viability ([20]; first compound 6.325 µM): 0.618 | relative viability ([20]; first compound 20 µM): 0.127 | relative viability ([21]; first compound 0.2 µM): 0.746 | relative viability ([21]; first compound 0.6325 µM): 0.616 | relative viability ([21]; first compound 2 µM): 0.478 | relative viability ([21]; first compound 6.325 µM): 0.456 | relative viability ([21]; first compound 20 µM): 0.118 | relative viability ([22]; first compound 0.2 µM): 0.806 | relative viability ([22]; first compound 0.6325 µM): 0.668 | relative viability ([22]; first compound 2 µM): 0.773 | relative viability ([22]; first compound 6.325 µM): 0.573 | relative viability ([22]; first compound 20 µM): 0.131

— the supplement of paper PMC10307832
